Experimental data from the supplement of paper PMC10307832.

Legend:
Test in all cases: relative viability (nuclei count vs DMSO), 5 days (fraction); higher = more cells survive
[1] = compound: O=S(=O)(c1ccccc1)N(CC(F)(F)F)c1ccc(C(O)(C(F)(F)F)C(F)(F)F)cc1 + Cc1cc(Nc2cc(N3CCN(C)CC3)nc(Sc3ccc(NC(=O)C4CC4)cc3)n2)n[nH]1 [Tozasertib] (partner 0.1 µM)
In short: (§1)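 Values are medians from duplicate plates. Each reflects relative viability, defined as the nuclei count of treated wells over that of vehicle wells. Lung cancer cell lines in 1536-well plates were pin-tool dosed one day after seeding with one drug alone or with a fixed anchor-drug dose plus five library-drug doses (not always all listed) in √10 steps, then fixed, stained and imaged at 4× after 5 days.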

RO-3306 + Navitoclax = compound: C1=CC2=C(C=CC(=C2)C=C3C(=O)NC(=NCC4=CC=CS4)S3)N=C1 [RO-3306] + CC1(C)CCC(c2ccc(Cl)cc2)=C(CN2CCN(c3ccc(C(=O)NS(=O)(=O)c4ccc(N[C@H](CCN5CCOCC5)CSc5ccccc5)c(S(=O)(=O)C(F)(F)F)c4)cc3)CC2)C1 [Navitoclax] (partner 0.5 µM)
In short: as §1

RO-3306 + Linsitinib = compound: C1=CC2=C(C=CC(=C2)C=C3C(=O)NC(=NCC4=CC=CS4)S3)N=C1 [RO-3306] + C[C@]1(O)C[C@@H](c2nc(-c3ccc4ccc(-c5ccccc5)nc4c3)c3c(N)nccn32)C1 [Linsitinib] (partner 1 µM)
In short: as §1

RO-3306 + Pictilisib = compound: C1=CC2=C(C=CC(=C2)C=C3C(=O)NC(=NCC4=CC=CS4)S3)N=C1 [RO-3306] + CS(=O)(=O)N1CCN(Cc2cc3nc(-c4cccc5[nH]ncc45)nc(N4CCOCC4)c3s2)CC1 [Pictilisib] (partner 1 µM)
In short: as §1

UMC-11
relative viability ([1]; first compound 0.8 µM): 0.215
relative viability ([1]; first compound 2.53 µM): 0.22
relative viability ([1]; first compound 8 µM): 0.237
relative viability (RO-3306 + Navitoclax; first compound 0.01 µM): 0.325
relative viability (RO-3306 + Navitoclax; first compound 0.03162 µM): 0.312
relative viability (RO-3306 + Navitoclax; first compound 0.1 µM): 0.305
relative viability (RO-3306 + Navitoclax; first compound 0.3162 µM): 0.321
relative viability (RO-3306 + Navitoclax; first compound 1 µM): 0.319
relative viability (RO-3306 + Linsitinib; first compound 0.01 µM): 0.998
relative viability (RO-3306 + Linsitinib; first compound 0.03162 µM): 0.783
relative viability (RO-3306 + Linsitinib; first compound 0.1 µM): 1.08
relative viability (RO-3306 + Linsitinib; first compound 0.3162 µM): 1.08
relative viability (RO-3306 + Linsitinib; first compound 1 µM): 1.03
relative viability (RO-3306 + Pictilisib; first compound 0.01 µM): 1.16
relative viability (RO-3306 + Pictilisib; first compound 0.03162 µM): 0.729
relative viability (RO-3306 + Pictilisib; first compound 0.1 µM): 0.811
relative viability (RO-3306 + Pictilisib; first compound 0.3162 µM): 0.859
relative viability (RO-3306 + Pictilisib; first compound 1 µM): 0.617
